In PubChem BioAssay (NCI):
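A five-concentration, 48-hour dose response in 96-well plates underlies each endpoint, interpolated linearly between surrounding concentrations. TGI: total growth inhibition.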

Key:
Assay in all cases: DTP human tumour cell line panel, 48 h
SK-MEL-2 melanoma = system: SK-MEL-2 melanoma
SR leukemia = system: SR leukemia
RPMI-8226 leukemia = system: RPMI-8226 leukemia
A549 NSCLC = system: A549 NSCLC
HCT-15 colon = system: HCT-15 colon
SF-539 CNS = system: SF-539 CNS
UO-31 renal = system: UO-31 renal
MOLT-4 leukemia = system: MOLT-4 leukemia
CAKI-1 renal = system: CAKI-1 renal
SW-620 colon = system: SW-620 colon
HCC-2998 colon = system: HCC-2998 colon
HT29 colon = system: HT29 colon
DU-145 prostate = system: DU-145 prostate
PC-3 prostate = system: PC-3 prostate
K-562 leukemia = system: K-562 leukemia
SF-268 CNS = system: SF-268 CNS
KM20L2 colon = system: KM20L2 colon
A498 renal = system: A498 renal
HOP-92 NSCLC = system: HOP-92 NSCLC
SF-295 CNS = system: SF-295 CNS

`CCCCCCCCCCCC(=O)OCC(C[As](=O)(O)O)OC(=O)CCCCCCCCCCC` (stereo not given) gave a TGI (SK-MEL-2 melanoma) of 12.1 µM, a TGI (SR leukemia) of 51.4 µM and a TGI (RPMI-8226 leukemia) greater than 62 µM. For the same compound, the TGI (A549 NSCLC) was 25.8 µM, the TGI (HCT-15 colon) was 25.5 µM and the TGI (SF-539 CNS) was 32 µM. It also gave a TGI (UO-31 renal) of 17.4 µM, a TGI (MOLT-4 leukemia) greater than 41.6 µM and a TGI (CAKI-1 renal) of 21.7 µM. The TGI (SW-620 colon) was 26.8 µM, the TGI (HCC-2998 colon) was 14 µM and the TGI (HT29 colon) was 20.2 µM. It also gave a TGI (DU-145 prostate) of 35.6 µM, a TGI (PC-3 prostate) of 9.52 µM and a TGI (K-562 leukemia) greater than 38.9 µM. The TGI (SF-268 CNS) was greater than 34.1 µM, the TGI (KM20L2 colon) was 20 µM and the TGI (A498 renal) was 17.7 µM. It also gave a TGI (HOP-92 NSCLC) of 4.29 µM and a TGI (SF-295 CNS) of 26.7 µM.
